Laboratory results reported in US6602880B2, “3-phenyl-3,7-diazabicyclo[3.3.1] nonane compounds, process for preparing them, pharmaceutical compositions containing them and use thereof to inhibit cardiac arrhythmia” (priority 2001, dated 2003).

How the values were obtained:
[1] = system: anaesthetised guinea pigs; assay: In vivo antiarrhythmic properties (ERP) and blood pressure under tachycardic conditions in anaesthetised guinea pigs; design: species or system guinea pig; conditions: i.v.
Description: The effects of the substances on the effective refractory period (=ERP) and the blood pressure on i.v. administration with increased heart rate were investigated on anaesthetised guinea pigs. A bipolar stimulation catheter was inserted into the right ventricle of the animals via a jugular vein under full anaesthesia. The heart rates of the animals were kept at about 150% of their normal heart rates via this catheter by means of electrical stimulation during the entire investigation. A cannula for i.v. administration of the test substances was inserted in the other jugular vein. During the investigation, the systolic and the diastolic arterial blood pressure (=SAP and DAP) were measured in a carotid artery via a pressure gauge (Statham pressure transducer). The test substances were administered i.v. in increasing doses (cumulatively). Before administration of the first dose and in each case 8 minutes after administration of each dose, the ERP was determined by means of a double pulse protocol. The dose at which a prolongation of the ERP to 115% of the starting value was achieved was considered as the effective dose (=ERP-ED115). Effective doses for a hypotensive effect were considered as the dose at which the SAP was decreased to 85% of its starting value (=SAP-ED85), and the dose at which the DAP was decreased to 85% of its starting value (=DAP-ED85).

mice = assay: Determination of the minimum toxic dose; format: in vivo; conditions: mouse p.o.; lowest dose causing death or severe toxic symptoms; maximum dose 300 mg/kg; observed 72 hours
Description: Male mice each having a weight of 20 to 25 g were administered maximum doses of 300 mg/kg of the test substance p.o. The animals were observed carefully for toxicity symptoms for 3 hours. Additionally all symptoms and deaths were recorded over a period of 72 hours after administration. Concomitant symptoms were likewise observed and recorded. If death or severe toxic symptoms were observed, further mice were administered increasingly lower doses until toxic symptoms no longer occurred. The lowest dose which caused death or severe toxic symptoms is indicated in the following Table A as the minimum toxic dose.

[2] = system: isolated papillary muscle of the right ventricle of guinea pigs; assay: In vitro functional refractory period on electrically stimulated papillary muscles from guinea-pig hearts; conditions: concentration prolonging FRP by 12 milliseconds; stimulation 3 Hz; 20 minutes after addition
Description: The heart was quickly removed from guinea pigs which had been sacrificed by a blow to the back of the neck and the papillary muscles of the right ventricle were fixed in organ baths through which temperature-controlled oxygenated nutrient solution flowed. The muscle preparations were electrically stimulated with a frequency of 3 Hz. The test substances were added to the organ baths in increasing concentrations (cumulatively). In each case 20 minutes after addition of the test substance, the functional refractory period was determined by means of a double pulse protocol. In each case a cumulative concentration/action curve was plotted from the measured values. The concentration at which a prolongation of the FRP by 12 milliseconds was achieved was calculated from this as the effective concentration (=FRP-EC+12ms).

[3] = system: isolated perfused rabbit hearts; assay: In vitro potential proarrhythmogenity on isolated perfused rabbit hearts (monophasic action potential); conditions: three hearts (n=3), one value each; for Instability: control about 7 ms; for Triangulation: control about 90 ms
Description: The extent of the potential proarrhythmogenity of Class III antiarrhythmic substances can be estimated using the measurement of electrophysiological parameters such as “instability” and “triangulation” (see below) on the monophasic action potential, derived from isolated perfused rabbit hearts. The pharmacological test set forth below was performed analogously to the method fundamentally described in L. M. Hondeghem et al., Circulation 103 (2001) 2004-2013 (referred to hereafter as “Hondeghem et al.”), in conjunction with L. M. Hondeghem, Journal of Cardiovascular Electrophysiology 5(8) (1994) 711-721 (referred to hereafter as “Hondeghem”). The hearts were quickly removed from rabbits which had been sacrificed by a blow to the back of the neck, and were immediately perfused in a Langendorff arrangement under constant pressure (80 cm H2O) with temperature-controlled oxygenated nutrient solution. The heart was stimulated with different stimulation protocols using two stimulation electrodes which were each arranged in the region of the right and left crus of the bundle of His (cf. “Hondeghem et al.”). Two further electrodes (one discharge electrode endocardially in the region of the septum of the left ventricle and a reference electrode epicardially on the left ventricle) served to discharge the monophasic action potential.
Using the monophasic action potential duration with different repolarisation levels (APD10-90; “APD10” designates the action potential duration until the occurrence of 10% of repolarisation), the following parameters were derived as indicators of the proarrhythmogenity:
(1) Instability: The change in the APD60 from heartbeat to heartbeat is designated “instability”. Under control conditions, this value is on average about 7 milliseconds (=ms). Greater deviations from this average value towards a longer duration (>7 ms) indicate an increased probability of occurrence for proarrhythmias caused by the test substances investigated.
(2) Triangulation: The repolarisation time in ms from APD30 to ADP90 is designated “triangulation”. Under control conditions, this value is usually about 90 ms.
The results obtained with the method described above on three hearts (n=3) in each case are reproduced in the following Table D.

anaesthetised cats = assay: In vivo fibrillation threshold in anaesthetised cats; design: species or system cat; conditions: more marked on the atrium than on the ventricle
Description: Such an atrioselective increase in the fibrillation threshold is an indication that the tested compound has a beneficial action profile with a reduced proarrhythmogenity risk.

iKr (HERG) = target: T1, iKr (HERG) (Homo sapiens, UniProt Q12809); assay: Blocking action on rapid delayed rectifier potassium current iKr (HERG), HEK293 cells stably transfected; format: cell-based; conditions: HEK293 cells stably transfected with HERG
T1 construct: expressed in transfected cells; host or cells: HEK293 (ATCC CRL-1573), stably transfected
Description: The iKr (HERG) can be measured selectively in the manner stated below: to measure the iKr, a cell line (human embryonal kidney cells, HEK293; see e.g. American Tissue Culture Collection (=ATCC) No.: CRL-1573) is used, which is stably transfected with the gene for the iKr (HERG) (cf. Z. Zhou et al., Biophysical Journal 74(1) (1998) 230-241). […] The iKr is determined using the current amplitude at −40 mV holding potential immediately after a 500 ms pulse protocol of −75 mV holding potential at most +10 mV depolarisation. That substance concentration at which 50% of the maximum current is blocked (IC50 %) is determined from the inhibitions of the corresponding current at different substance concentrations.

iKs = target: T2, iKs (Canis lupus familiaris, UniProt A0A8I3N8W8); assay: Blocking action on slow delayed rectifier potassium current iKs, whole-cell patch-clamp on dog cardiac muscle cells; format: cell-based; conditions: dog left ventricle cardiac muscle cells; 1 μM nisoldipine and 2 μM E-4031 added; holding potential -40 mV
T2 construct: the individualised cardiac muscle cells are investigated electrophysiologically using the “whole-cell patch-clamp” method; from tissue; host or cells: isolated dog left ventricular cardiac muscle cells
T2 sequence (A0A8I3N8W8 1-676): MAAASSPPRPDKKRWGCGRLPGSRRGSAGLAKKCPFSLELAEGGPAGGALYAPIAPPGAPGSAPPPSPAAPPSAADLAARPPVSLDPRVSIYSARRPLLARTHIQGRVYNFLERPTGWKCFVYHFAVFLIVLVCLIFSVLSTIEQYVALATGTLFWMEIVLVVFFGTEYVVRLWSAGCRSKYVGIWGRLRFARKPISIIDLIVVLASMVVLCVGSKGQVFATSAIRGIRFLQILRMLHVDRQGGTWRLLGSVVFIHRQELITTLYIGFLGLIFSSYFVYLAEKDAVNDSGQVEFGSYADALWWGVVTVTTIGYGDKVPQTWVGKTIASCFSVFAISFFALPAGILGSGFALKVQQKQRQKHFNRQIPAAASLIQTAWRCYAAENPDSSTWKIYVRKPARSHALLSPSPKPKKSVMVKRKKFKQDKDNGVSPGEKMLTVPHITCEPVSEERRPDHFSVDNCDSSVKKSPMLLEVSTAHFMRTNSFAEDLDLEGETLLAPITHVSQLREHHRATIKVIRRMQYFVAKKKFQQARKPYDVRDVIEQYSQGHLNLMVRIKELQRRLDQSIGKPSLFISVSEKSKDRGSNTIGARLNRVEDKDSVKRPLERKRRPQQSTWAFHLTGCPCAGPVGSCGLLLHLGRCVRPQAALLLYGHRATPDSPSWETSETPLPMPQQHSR
Description: The iKs can be measured selectively in the manner described below: the hearts are quickly removed from anaesthetised dogs and a muscle section from the left ventricle is perfused with collagenase-containing solution via an arterial vessel. The well-dissociated tissue is comminuted and the individualised cardiac muscle cells are investigated electrophysiologically using the “whole-cell patch-clamp” method (cf. O. P. […] The iKs is then determined using the current amplitude immediately after a 5-second pulse protocol of -40 mV holding potential at most +50 mV depolarisation. The iKr (HERG) can be measured selectively in the manner stated below: to measure the iKr, a cell line (human embryonal kidney cells, HEK293; see e.g. American Tissue Culture Collection (=ATCC) No.: CRL-1573) is used, which is stably transfected with the gene for the iKr (HERG) (cf. Z. Zhou et al., Biophysical Journal 74(1) (1998) 230-241). […] The iKr is determined using the current amplitude at -40 mV holding potential immediately after a 500 ms pulse protocol of -75 mV holding potential at most +10 mV depolarisation. That substance concentration at which 50% of the maximum current is blocked (IC50 %) is determined from the inhibitions of the corresponding current at different substance concentrations.

T1 sequence (Q12809 whole entry): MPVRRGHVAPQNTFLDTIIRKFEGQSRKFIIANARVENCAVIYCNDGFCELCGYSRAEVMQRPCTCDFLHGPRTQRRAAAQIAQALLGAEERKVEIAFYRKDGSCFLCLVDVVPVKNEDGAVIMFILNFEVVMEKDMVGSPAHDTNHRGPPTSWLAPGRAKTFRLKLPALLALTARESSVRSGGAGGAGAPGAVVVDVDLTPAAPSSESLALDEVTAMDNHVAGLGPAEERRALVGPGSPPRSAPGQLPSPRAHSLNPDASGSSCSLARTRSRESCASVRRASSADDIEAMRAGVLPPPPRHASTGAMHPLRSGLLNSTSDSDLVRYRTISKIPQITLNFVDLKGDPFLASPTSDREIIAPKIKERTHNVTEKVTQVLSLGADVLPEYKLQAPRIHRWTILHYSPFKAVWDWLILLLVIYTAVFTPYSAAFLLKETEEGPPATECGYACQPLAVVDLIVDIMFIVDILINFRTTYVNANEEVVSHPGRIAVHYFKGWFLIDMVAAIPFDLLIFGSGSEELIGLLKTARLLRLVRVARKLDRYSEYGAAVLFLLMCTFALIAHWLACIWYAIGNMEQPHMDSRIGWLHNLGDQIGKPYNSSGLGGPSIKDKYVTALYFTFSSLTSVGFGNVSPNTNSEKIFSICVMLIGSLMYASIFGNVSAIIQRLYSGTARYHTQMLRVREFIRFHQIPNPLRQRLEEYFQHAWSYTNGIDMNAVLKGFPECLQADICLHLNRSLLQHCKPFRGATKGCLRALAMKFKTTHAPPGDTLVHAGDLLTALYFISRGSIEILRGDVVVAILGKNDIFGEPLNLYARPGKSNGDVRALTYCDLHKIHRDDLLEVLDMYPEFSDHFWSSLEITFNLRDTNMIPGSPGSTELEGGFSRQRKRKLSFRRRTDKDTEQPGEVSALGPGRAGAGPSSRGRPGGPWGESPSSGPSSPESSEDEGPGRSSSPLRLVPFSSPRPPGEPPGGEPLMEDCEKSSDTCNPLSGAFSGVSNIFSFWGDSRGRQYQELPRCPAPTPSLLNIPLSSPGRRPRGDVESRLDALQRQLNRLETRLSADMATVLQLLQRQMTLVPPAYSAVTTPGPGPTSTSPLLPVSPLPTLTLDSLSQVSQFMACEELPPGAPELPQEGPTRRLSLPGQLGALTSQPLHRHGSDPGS

Row | Structure (SMILES) | Antiarrhythmic action ERP-ED115 ([1]; cumulative doses, dose prolonging ERP to 115% of starting value, heart rate about 150% of normal) [µmol/kg] | Vasodepression ED85 DAP ([1]; dose decreasing diastolic arterial pressure to 85% of starting value, >> = no tendency to vasodepression at the doses tested) | Vasodepression ED85 SAP ([1]; dose decreasing systolic arterial pressure to 85% of starting value, >> = no tendency to vasodepression at the doses tested) | Minimum toxic dose (mice) [mg/kg] | Antiarrhythmic action FRP-EC+12 ms [2] [µmol/L] | Instability ([3]; 0.3 μM) | Triangulation ([3]; 0.3 μM) | Instability ([3]; 1 μM) | Triangulation ([3]; 1 μM) | increase in the fibrillation threshold (anaesthetised cats; administration i.v.) | increase in the fibrillation threshold (anaesthetised cats; administration p.o.) | IC50 (iKr (HERG)) [nM] | IC50 (iKs) [nM]
1 | CCCCN1CC2CN(c3ccc([N+](=O)[O-])cc3[N+](=O)[O-])CC(C1)C2(C)C [Example 1, 7-(n-Butyl)-3-(2,4-dinitrophenyl)-9,9-dimethyl-3,7-diazabicyclo[3.3.1]nonane] | 0.4 | >>10 μmol/kg | >>10 μmol/kg | 300 | 0.6 | – | – | – | – | – | – | – | –
2 | CCCCN1CC2CN(c3ccc(C#N)cc3)CC(C1)C21CCCC1.O=C(O)C(O)C(O)C(=O)O [Example 4, 7-(n-Butyl)-3-(4-cyanophenyl)-9,9-tetramethylene-3,7-diazabicyclo[3.3.1]nonane Hydrogen Tartrate] | – | – | – | – | 0.8 | 6/3/3 | 48/64/62 | 6/25/7 | 52/79/79 | dosage-dependent, clear, long-lasting increase in the fibrillation threshold | dosage-dependent, clear, long-lasting increase in the fibrillation threshold | 20 | 700
